According to the NIST ThermoML archive (doi:10.1021/je2003012):
± gives the expanded uncertainty stated by the source.

Assay: relative permittivity at various frequencies (dimensionless); wn = mass fraction of the nth substance listed
Conditions: Liquid, direct capacitance:P =

SMILES: O=C=O [carbon dioxide] + CCO
- relative permittivity (303.4 K, 10000 kPa, w2 = 0.05): 1.83 ± 0.14
- relative permittivity (303.4 K, 11400 kPa, w2 = 0.05): 1.86 ± 0.14
- relative permittivity (303.4 K, 13200 kPa, w2 = 0.05): 1.89 ± 0.14
- relative permittivity (303.4 K, 13600 kPa, w2 = 0.05): 1.9 ± 0.14
- relative permittivity (303.4 K, 14800 kPa, w2 = 0.05): 1.91 ± 0.14
- relative permittivity (303.4 K, 15300 kPa, w2 = 0.05): 1.92 ± 0.14
- relative permittivity (303.4 K, 15800 kPa, w2 = 0.05): 1.92 ± 0.14
- relative permittivity (303.4 K, 16000 kPa, w2 = 0.05): 1.93 ± 0.14
- relative permittivity (303.4 K, 17500 kPa, w2 = 0.05): 1.94 ± 0.14
- relative permittivity (303.4 K, 19000 kPa, w2 = 0.05): 1.95 ± 0.14
- relative permittivity (303.4 K, 19200 kPa, w2 = 0.05): 1.95 ± 0.14
- relative permittivity (303.4 K, 21000 kPa, w2 = 0.05): 1.97 ± 0.14
- relative permittivity (303.4 K, 21300 kPa, w2 = 0.05): 1.97 ± 0.14
- relative permittivity (303.4 K, 23000 kPa, w2 = 0.05): 1.98 ± 0.14
- relative permittivity (303.4 K, 23300 kPa, w2 = 0.05): 1.99 ± 0.14
- relative permittivity (303.4 K, 25100 kPa, w2 = 0.05): 2 ± 0.14
- relative permittivity (303.4 K, 25400 kPa, w2 = 0.05): 2 ± 0.14
- relative permittivity (303.4 K, 26700 kPa, w2 = 0.05): 2.01 ± 0.14
- relative permittivity (303.4 K, 27200 kPa, w2 = 0.05): 2.01 ± 0.14
- relative permittivity (303.4 K, 28900 kPa, w2 = 0.05): 2.02 ± 0.14
- relative permittivity (303.4 K, 29600 kPa, w2 = 0.05): 2.03 ± 0.14
- relative permittivity (303.7 K, 7200 kPa, w2 = 0.212): 3.15 ± 0.15
- relative permittivity (303.7 K, 7900 kPa, w2 = 0.212): 3.18 ± 0.15
- relative permittivity (303.7 K, 8800 kPa, w2 = 0.212): 3.22 ± 0.15
- relative permittivity (303.7 K, 9800 kPa, w2 = 0.1): 2.24 ± 0.14
- relative permittivity (303.7 K, 9800 kPa, w2 = 0.212): 3.25 ± 0.15
- relative permittivity (303.7 K, 11000 kPa, w2 = 0.212): 3.29 ± 0.15
- relative permittivity (303.7 K, 11300 kPa, w2 = 0.1): 2.27 ± 0.14
- relative permittivity (303.7 K, 11400 kPa, w2 = 0.1): 2.28 ± 0.14
- relative permittivity (303.7 K, 13000 kPa, w2 = 0.212): 3.35 ± 0.15
- relative permittivity (303.7 K, 13100 kPa, w2 = 0.1): 2.3 ± 0.14
- relative permittivity (303.7 K, 14000 kPa, w2 = 0.1): 2.32 ± 0.14
- relative permittivity (303.7 K, 14900 kPa, w2 = 0.1): 2.34 ± 0.14
- relative permittivity (303.7 K, 14900 kPa, w2 = 0.212): 3.4 ± 0.15
- relative permittivity (303.7 K, 15000 kPa, w2 = 0.212): 3.4 ± 0.15
- relative permittivity (303.7 K, 16000 kPa, w2 = 0.1): 2.36 ± 0.14
- relative permittivity (303.7 K, 16500 kPa, w2 = 0.212): 3.44 ± 0.15
- relative permittivity (303.7 K, 16700 kPa, w2 = 0.212): 3.45 ± 0.15
- relative permittivity (303.7 K, 16900 kPa, w2 = 0.1): 2.37 ± 0.14
- relative permittivity (303.7 K, 17300 kPa, w2 = 0.212): 3.46 ± 0.15
- relative permittivity (303.7 K, 17800 kPa, w2 = 0.1): 2.38 ± 0.14
- relative permittivity (303.7 K, 18000 kPa, w2 = 0.212): 3.47 ± 0.15
- relative permittivity (303.7 K, 18800 kPa, w2 = 0.212): 3.49 ± 0.15
- relative permittivity (303.7 K, 19100 kPa, w2 = 0.1): 2.4 ± 0.14
- relative permittivity (303.7 K, 19900 kPa, w2 = 0.1): 2.41 ± 0.14
- relative permittivity (303.7 K, 20200 kPa, w2 = 0.212): 3.52 ± 0.15
- relative permittivity (303.7 K, 20400 kPa, w2 = 0.1): 2.42 ± 0.14
- relative permittivity (303.7 K, 21400 kPa, w2 = 0.1): 2.43 ± 0.14
- relative permittivity (303.7 K, 21600 kPa, w2 = 0.212): 3.54 ± 0.14
- relative permittivity (303.7 K, 21800 kPa, w2 = 0.212): 3.55 ± 0.14
- relative permittivity (303.7 K, 21900 kPa, w2 = 0.1): 2.43 ± 0.14
- relative permittivity (303.7 K, 23100 kPa, w2 = 0.1): 2.45 ± 0.14
- relative permittivity (303.7 K, 23300 kPa, w2 = 0.212): 3.57 ± 0.14
- relative permittivity (303.7 K, 23900 kPa, w2 = 0.212): 3.58 ± 0.14
- relative permittivity (303.7 K, 24100 kPa, w2 = 0.1): 2.46 ± 0.14
- relative permittivity (303.7 K, 24200 kPa, w2 = 0.1): 2.46 ± 0.14
- relative permittivity (303.7 K, 25300 kPa, w2 = 0.1): 2.47 ± 0.14
- relative permittivity (303.7 K, 25400 kPa, w2 = 0.212): 3.61 ± 0.14
- relative permittivity (303.7 K, 25500 kPa, w2 = 0.1): 2.48 ± 0.14
- relative permittivity (303.7 K, 26200 kPa, w2 = 0.212): 3.62 ± 0.14
- relative permittivity (303.7 K, 26500 kPa, w2 = 0.1): 2.48 ± 0.14
- relative permittivity (303.7 K, 27200 kPa, w2 = 0.212): 3.64 ± 0.14
- relative permittivity (303.7 K, 27400 kPa, w2 = 0.1): 2.49 ± 0.14
- relative permittivity (303.7 K, 28000 kPa, w2 = 0.1): 2.5 ± 0.14
- relative permittivity (303.7 K, 28400 kPa, w2 = 0.1): 2.5 ± 0.14
- relative permittivity (303.7 K, 28400 kPa, w2 = 0.212): 3.66 ± 0.14
- relative permittivity (303.7 K, 29400 kPa, w2 = 0.1): 2.51 ± 0.14
- relative permittivity (303.7 K, 30200 kPa, w2 = 0.212): 3.68 ± 0.14
- relative permittivity (304.9 K, 16100 kPa, w2 = 0.152): 2.67 ± 0.15
- relative permittivity (304.9 K, 16800 kPa, w2 = 0.152): 2.68 ± 0.14
- relative permittivity (304.9 K, 17300 kPa, w2 = 0.152): 2.68 ± 0.15
- relative permittivity (304.9 K, 17800 kPa, w2 = 0.152): 2.69 ± 0.14
- relative permittivity (304.9 K, 18800 kPa, w2 = 0.152): 2.7 ± 0.14
- relative permittivity (304.9 K, 19400 kPa, w2 = 0.152): 2.72 ± 0.14
- relative permittivity (304.9 K, 20100 kPa, w2 = 0.152): 2.73 ± 0.14
- relative permittivity (304.9 K, 20800 kPa, w2 = 0.152): 2.74 ± 0.14
- relative permittivity (304.9 K, 21900 kPa, w2 = 0.152): 2.75 ± 0.14
- relative permittivity (304.9 K, 22800 kPa, w2 = 0.152): 2.76 ± 0.14
- relative permittivity (304.9 K, 23700 kPa, w2 = 0.152): 2.77 ± 0.15
- relative permittivity (304.9 K, 24300 kPa, w2 = 0.152): 2.79 ± 0.14
- relative permittivity (304.9 K, 24700 kPa, w2 = 0.152): 2.78 ± 0.14
- relative permittivity (304.9 K, 25500 kPa, w2 = 0.152): 2.79 ± 0.14
- relative permittivity (304.9 K, 26400 kPa, w2 = 0.152): 2.81 ± 0.14
- relative permittivity (304.9 K, 26500 kPa, w2 = 0.152): 2.81 ± 0.14
- relative permittivity (304.9 K, 27200 kPa, w2 = 0.152): 2.82 ± 0.14
- relative permittivity (304.9 K, 28200 kPa, w2 = 0.152): 2.83 ± 0.14
- relative permittivity (304.9 K, 29100 kPa, w2 = 0.152): 2.84 ± 0.14
